# Biological target: human TPH1 (Homo sapiens (Human), UniProt P17752)
# Assay: Biochemical in vitro assay using fluorescence readout (TPH1 inhibition)
# [1] = human TPH1, fluorescence readout
# [2] = full length human TPH1, 40 μM L-tryptophan, 15° C., 60 minutes, fluorescence at 540 nm, mean if determined several times
# Chain of human TPH1 (P17752 whole entry): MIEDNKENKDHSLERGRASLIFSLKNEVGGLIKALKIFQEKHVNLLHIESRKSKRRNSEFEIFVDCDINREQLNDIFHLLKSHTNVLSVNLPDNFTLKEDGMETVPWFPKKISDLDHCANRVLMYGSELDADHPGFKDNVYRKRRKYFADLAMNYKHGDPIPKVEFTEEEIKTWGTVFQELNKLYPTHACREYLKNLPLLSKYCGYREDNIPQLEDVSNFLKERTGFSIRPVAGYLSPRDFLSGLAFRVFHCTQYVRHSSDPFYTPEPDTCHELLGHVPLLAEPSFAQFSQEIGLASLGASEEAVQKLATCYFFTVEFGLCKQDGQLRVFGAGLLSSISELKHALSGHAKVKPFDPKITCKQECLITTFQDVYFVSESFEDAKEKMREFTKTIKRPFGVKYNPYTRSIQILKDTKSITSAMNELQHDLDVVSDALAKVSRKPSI
SMILES,IC50 [1],IC50 [2]
"Cc1nn2c3c(nc2s1)CCN(C(=O)COc1ccc(-c2ncco2)nc1Cl)C3c1ccc(C2CC2)cc1F (stereo not shown) [Example 1.6.29, 2-((2-chloro-6-(oxazol-2-yl)pyridin-3-yl)oxy)-1-(5-(4-cyclopropyl-2-fluorophenyl)-2-methyl-7,8-dihydro-[1,3,4]thiadiazolo[2′,3′:2,3]imidazo[4,5-c]pyridin-6(5H)-yl)ethanone]",17 nM,–
"O=C(COc1ccc(CN2CCOCC2)cc1Cl)N1CCc2nc3sccn3c2C1c1cccnc1F (stereo not shown) [Example 6.2.1, 2-(2-chloro-4-(morpholinomethyl)phenoxy)-1-(5-(2-fluoropyridin-3-yl)-7,8-dihydrothiazolo[2′,3′:2,3]imidazo[4,5-c]pyridin-6(5H)-yl)ethanone]",12 nM,–
"O=C(COc1cccnc1Cl)N1CCc2nc3sccn3c2C1c1ccc(C(F)F)cc1F (stereo not shown) [Example 6.16.3, 2-((2-chloropyridin-3-yl)oxy)-1-(5-(4-(difluoromethyl)-2-fluorophenyl)-7,8-dihydrothiazolo[2′,3′:2,3]imidazo[4,5-c]pyridin-6(5H)-yl)ethanone]",15 nM,–
"Cc1cc(Cl)ccc1OCC(=O)N1CCc2nc3sccn3c2C1c1cnn(-c2ccccc2)c1 (stereo not shown) [Example 6.13.7, 2-(4-chloro-2-methylphenoxy)-1-(5-(1-phenyl-1H-pyrazol-4-yl)-7,8-dihydrothiazolo[2′,3′:2,3]imidazo[4,5-c]pyridin-6(5H)-yl)ethanone]",26 nM,–
"Cc1nn2c3c(nc2s1)CCN(C(=O)COc1ccc(S(N)(=O)=O)cc1)C3c1ccc(C2CC2)cc1F (stereo not shown) [Example 1.6.12, 4-(2-(5-(4-cyclopropyl-2-fluorophenyl)-2-methyl-7,8-dihydro-[1,3,4]thiadiazolo[2′,3′:2,3]imidazo[4,5-c]pyridin-6(5H)-yl)-2-oxoethoxy)benzenesulfonamide]",390 nM,–
"Cc1nn2c3c(nc2s1)CCN(C(=O)COc1ccc(N2CCOCC2)nc1Cl)C3c1nc(C(N)=O)cs1 (stereo not shown) [Example 1.48.1, 2-(6-(2-((2-Chloro-6-morpholinopyridin-3-yl)oxy)acetyl)-2-methyl-5,6,7,8-tetrahydro-[1,3,4]thiadiazolo[2′,3′:2,3]imidazo[4,5-c]pyridin-5-yl)thiazole-4-carboxamide]",–,5 nM
"Cc1nn2c3c(nc2s1)CCN(C(=O)COc1ccc(NS(=O)(=O)C2CC2)nc1Cl)C3c1ccc(Cl)cc1F (stereo not shown) [Example 1.4.16, N-(6-Chloro-5-(2-(5-(4-chloro-2-fluorophenyl)-2-methyl-7,8-dihydro-[1,3,4]thiadiazolo[2′,3′:2,3]imidazo[4,5-c]pyridin-6(5H)-yl)-2-oxoethoxy)pyridin-2-yl)-cyclopropanesulfonamide]",–,7 nM
"Cc1nn2c3c(nc2s1)CCN(C(=O)COc1ccc(N2CCOCC2)nc1Cl)C3c1scnc1C (stereo not shown) [Example 1.32.1, 2-((2-chloro-6-morpholinopyridin-3-yl)oxy)-1-(2-methyl-5-(4-methylthiazol-5-yl)-7,8-dihydro-[1,3,4]thiadiazolo [2′,3′:2,3]imidazo[4,5-c]pyridin-6(5H)-yl)ethanone]",2 nM,–
"CNC(=O)c1ccc(OCC(=O)N2CCc3nc4sc(C)nn4c3C2c2ncc(C)cc2F)c(Cl)n1 (stereo not shown) [Example 1.31.6, 6-chloro-5-(2-(5-(3-fluoro-5-methylpyridin-2-yl)-2-methyl-7,8-dihydro-[1,3,4]thiadiazolo[2′,3′:2,3]imidazo[4,5-c]pyridin-6(5H)-yl)-2-oxoethoxy)-N-methylpicolinamide]",7 nM,–
"Cc1nn2c3c(nc2s1)CCN(C(=O)COc1ccc(S(=O)(=O)N(C)C)nc1Cl)C3c1ccc(Cl)cc1F (stereo not shown) [Example 1.4.61, 6-chloro-5-(2-(5-(4-chloro-2-fluorophenyl)-2-methyl-7,8-dihydro-[1,3,4]thiadiazolo[2′,3′:2,3]imidazo[4,5-c]pyridin-6(5H)-yl)-2-oxoethoxy)-N,N-dimethylpyridine-2-sulfonamide]",37 nM,–
"Cc1nn2c3c(nc2s1)CCN(C(=O)COc1ccc(C(=O)N(C)C)nc1Cl)C3c1ncc(Cl)cc1F (stereo not shown) [Example 1.33.3, 6-chloro-5-(2-(5-(5-chloro-3-fluoropyridin-2-yl)-2-methyl-7,8-dihydro-[1,3,4]thiadiazolo[2′,3′:2,3]imidazo[4,5-c]pyridin-6(5H)-yl)-2-oxoethoxy)-N,N-dimethylpicolinamide]",6 nM,–
"CCc1nc(NS(C)(=O)=O)ncc1OCC(=O)N1CCc2nc3sc(C)nn3c2C1c1sc(C)nc1C (stereo not shown) [Example 1.68.9, N-(5-(2-(5-(2,4-dimethylthiazol-5-yl)-2-methyl-7,8-dihydro-[1,3,4]thiadiazolo[2′,3′:2,3]imidazo[4,5-c]pyridin-6(5H)-yl)-2-oxoethoxy)-4-ethylpyrimidin-2-yl)methanesulfonamide]",66 nM,–
"O=C(COc1cccc(C(F)(F)F)c1Cl)N1CCc2nc3sccn3c2C1c1cnn(-c2ccccc2)c1 (stereo not shown) [Example 6.13.1, 2-(2-chloro-3-(trifluoromethyl)phenoxy)-1-(5-(1-phenyl-1H-pyrazol-4-yl)-7,8-dihydrothiazolo[2′,3′:2,3]-imidazo[4,5-c]pyridin-6(5H)-yl)ethanone]",75 nM,–
"Cc1nn2c3c(nc2s1)CCN(C(=O)COc1cccc2c1ccn2C)C3c1ccc(Cl)cc1F (stereo not shown) [Example 1.4.62, 1-(5-(4-chloro-2-fluorophenyl)-2-methyl-7,8-dihydro-[1,3,4]thiadiazolo[2′,3′:2,3]imidazo[4,5-c]pyridin-6(5H)-yl)-2-((1-methyl-1H-indol-4-yl)oxy)ethan-1-one]",15 nM,–
"Cc1nn2c3c(nc2s1)CCN(C(=O)COc1ccc(C(=O)N(C)C)nc1Cl)C3c1ccc(Cl)cc1F (stereo not shown) [Example 1.4.42, 6-chloro-5-(2-(5-(4-chloro-2-fluorophenyl)-2-methyl-7,8-dihydro-[1,3,4]thiadiazolo[2′,3′:2,3]imidazo[4,5-c]pyridin-6(5H)-yl)-2-oxoethoxy)-N,N-dimethylpicolinamide]",18 nM,–
"Cc1nn2c3c(nc2s1)CCN(C(=O)COc1ccc(NS(C)(=O)=O)nc1Cl)C3c1cc(F)c(C)cc1F (stereo not shown) [Example 1.74.2, N-(6-chloro-5-(2-(5-(2,5-difluoro-4-methylphenyl)-2-methyl-7,8-dihydro-[1,3,4]thiadiazolo[2′,3′:2,3]imidazo[4,5-c]pyridin-6(5H)-yl)-2-oxoethoxy)pyridin-2-yl)methanesulfonamide]",18 nM,–
"Cc1nn2c3c(nc2s1)CCN(C(=O)COc1ccc(C(=O)N(C)C)nc1Cl)C3c1ncc(C(=O)N(C)C)s1 (stereo not shown) [Example 1.37.4, 2-(6-(2-((2-Chloro-6-(dimethylcarbamoyl)pyridin-3-yl)oxy)acetyl)-2-methyl-5,6,7,8-tetrahydro-[1,3,4]thiadiazolo[2′,3′:2,3]imidazo[4,5-c]pyridin-5-yl)-N,N-dimethylthiazole-5-carboxamide]",–,40 nM
"Cc1nn2c3c(nc2s1)CCN(C(=O)COc1cnc(N(C)C)nc1Cl)C3c1ccc(Cl)cc1F (stereo not shown) [Example 1.4.40, 2-((4-chloro-2-(dimethylamino)pyrimidin-5-yl)oxy)-1-(5-(4-chloro-2-fluorophenyl)-2-methyl-7,8-dihydro-[1,3,4]thiadiazolo [2′,3′:2,3]imidazo[4,5-c]pyridin-6(5H)-yl)ethanone]",4 nM,–
"Cc1nn2c3c(nc2s1)CCN(C(=O)COc1ccc(NS(C)(=O)=O)nc1Cl)C3c1ccc(OC(F)(F)F)cc1F (stereo not shown) [Example 1.77.1, N-(6-chloro-5-(2-(5-(2-fluoro-4-(trifluoromethoxy)phenyl)-2-methyl-7,8-dihydro-[1,3,4]thiadiazolo[2′,3′:2,3]imidazo[4,5-c]pyridin-6(5H)-yl)-2-oxoethoxy)pyridin-2-yl)methanesulfonamide]",13 nM,–
"Cc1nn2c3c(nc2s1)CCN(C(=O)COc1ccc(C(=O)NCC#N)nc1Cl)C3c1ccc(Cl)cc1F (stereo not shown) [Example 1.4.23, 6-Chloro-5-(2-(5-(4-chloro-2-fluorophenyl)-2-methyl-7,8-dihydro-[1,3,4]thiadiazolo[2′,3′:2,3]imidazo[4,5-c]pyridin-6(5H)-yl)-2-oxoethoxy)-N-(cyano-methyl)picolinamide]",–,247 nM
"CCc1nc(NS(C)(=O)=O)ccc1OCC(=O)N1CCc2nc3sc(C)nn3c2C1c1ccc(C)c(F)c1F (stereo not shown) [Example 1.61.5, N-(5-(2-(5-(2,3-difluoro-4-methylphenyl)-2-methyl-7,8-dihydro-[1,3,4]thiadiazolo[2′,3′:2,3]imidazo[4,5-c]pyridin-6(5H)-yl)-2-oxoethoxy)-6-ethylpyridin-2-yl)methanesulfonamide]",9 nM,–
"Cc1nn2c3c(nc2s1)CCN(C(=O)C1(Oc2ccc(NS(C)(=O)=O)nc2Cl)CC1)C3c1ccc(Cl)cc1F (stereo not shown) [Example 1.4.54, N-(6-chloro-5-(1-(5-(4-chloro-2-fluorophenyl)-2-methyl-5,6,7,8-tetrahydro-[1,3,4]thiadiazolo[2′,3′:2,3]imidazo[4,5-c]pyridine-6-carbonyl)cyclopropoxy)pyridin-2-yl)methanesulfonamide]",37 nM,–
"Cc1nn2c3c(nc2s1)CCN(C(=O)COc1ccc(NS(C)(=O)=O)nc1Cl)C3c1cnc(C(=O)N(C)C)s1 (stereo not shown) [Example 1.34.3, 5-(6-(2-((2-chloro-6-(methylsulfonamido)pyridin-3-yl)oxy)acetyl)-2-methyl-5,6,7,8-tetrahydro-[1,3,4]thiadiazolo [2′,3′:2,3]imidazo[4,5-c]pyridin-5-yl)-N,N-dimethylthiazole-2-carboxamide]",104 nM,–
"Cc1nn2c3c(nc2s1)CCN(C(=O)COc1ccc(NS(C)(=O)=O)nc1Cl)C3c1sc(C(F)(F)F)nc1C (stereo not shown) [Example 1.76.1, N-(6-chloro-5-(2-(2-methyl-5-(4-methyl-2-(trifluoromethyl)thiazol-5-yl)-7,8-dihydro-[1,3,4]thiadiazolo[2′,3′:2,3]imidazo[4,5-c]pyridin-6(5H)-yl)-2-oxoethoxy)pyridin-2-yl)methanesulfonamide]",20 nM,–
"Cc1cc(Cl)ccc1OCC(=O)N1CCc2nc3sccn3c2C1c1cc2cccnc2s1 (stereo not shown) [Example 6.14.2, 2-(4-chloro-2-methylphenoxy)-1-(5-(thieno[2,3-b]-pyridin-2-yl)-7,8-dihydrothiazolo[2′,3′:2,3]imidazo[4,5-c]pyridin-6(5H)-yl)ethanone]",39 nM,–
